Patent US7211576B2, “Diaminothiazoles” (Hoffmann-La Roche Inc., priority 2004, dated 2007)

How the values were obtained:
Assay type in all cases: biochemical
human cyclin D1-CDK4 = human cyclin D1-CDK4 (Homo sapiens, UniProt P11802); experiment: FlashPlate kinase assay, cyclin D1-CDK4; conditions: Rb protein substrate, 1 μM ATP, 33P-ATP, 30 minutes room temperature; read-out: CDK4 IC50
Experimental: To determine inhibition of Cdk4, Cdk2 and Cdk1 activity, kinase assays were conducted using FlashPlate™ assays (NEN™-Life Science Products). FlashPlate assays were performed using recombinant human cyclin B-CDK1, human cyclin E-CDK2 or human cyclin D1-CDK4 complexes. GST-cyclinE (GST-cycE), CDK2, GST-cyclinB (GST-cycB), CDK1, GST-CDK4 and cyclin D1 (cycD1) cDNA clones in baculovirus vectors were provided by Dr. W. Harper at the Baylor College of Medicine, Houston, Tex.
(§1) The expression of the 62Kd protein was under the control of an IPTG inducible promoter in an M15 E. coli strain. Cells were lysed by sonication and purification was carried out by binding lysates at pH 8.0 to a Ni-chelated agarose column pretreated with 1 mM imidazole. The resin was then washed several times with incrementally decreasing pH buffers to pH 6.0, and eluted with 500 mM imidazole. Eluted protein was dialysed against 20 mM HEPES pH 7.5, 30% glycerol, 200 mM NaCl, and 1 mM DTT. Purified Rb fusion protein stocks were quantitated for protein concentration, aliquoted, and stored at −70° C.
(§2) For all three kinase assays reported herein, 96-well FlashPlates were coated with Rb protein at 10 μg/ml, using 100 μl per well. Plates were incubated at 4° C. overnight or at room temperature for 3 hours on a shaker. To control for nonspecific phosphorylation, one row of wells was coated with 100 μl/well coating buffer (20 mM HEPES, 0.2 M NaCl). Plates were then washed twice with wash buffer (0.01% Tween 20 in phosphate-buffered saline). Compounds to be tested (“test compounds”) were added to the wells at 5× final concentration. Reactions were initiated by immediate addition of 40 μl reaction mix (25 mM HEPES, 20 mM MgCl2, 0.002% Tween 20, 2 mM DTT, 1 μM ATP, 4 nM ^33P-ATP) and a sufficient amount of enzyme to give counts that were at least 10-fold above background. Plates were incubated at room temperature on a shaker for 30 minutes. Plates were washed four times with the wash buffer, sealed, and counted on the TopCount scintillation counter (Packard Instrument Co., Downers Grove, Ill.]. The percent inhibition of Rb phosphorylation, which is a measure of the inhibition of CDK activity, was determined according to the following formula:
[formula] where “test compound” refers to the average counts per minute of the test duplicates, “nonspecific” refers to the average counts per minute when no CyclinD/Cdk4, etc., was added, and “total” refers to the average counts per minute when no compound was added.

human cyclin B-CDK1 = human cyclin B-CDK1 (Homo sapiens, UniProt P06493); experiment: FlashPlate kinase assay, cyclin B-CDK1; conditions: Rb protein substrate, 1 μM ATP, 33P-ATP, 30 minutes room temperature
Chain of human cyclin B-CDK1 (P06493 whole entry): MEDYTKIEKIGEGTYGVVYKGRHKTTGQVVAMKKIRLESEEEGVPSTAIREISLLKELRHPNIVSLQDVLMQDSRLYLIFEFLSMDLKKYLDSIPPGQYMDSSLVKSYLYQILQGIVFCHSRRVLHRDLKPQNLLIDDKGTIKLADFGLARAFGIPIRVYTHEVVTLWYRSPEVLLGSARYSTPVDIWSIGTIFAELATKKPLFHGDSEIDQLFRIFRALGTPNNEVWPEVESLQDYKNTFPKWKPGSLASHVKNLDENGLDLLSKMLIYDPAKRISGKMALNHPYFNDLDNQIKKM
Chain of human cyclin B-CDK1 (P14635 whole entry partner): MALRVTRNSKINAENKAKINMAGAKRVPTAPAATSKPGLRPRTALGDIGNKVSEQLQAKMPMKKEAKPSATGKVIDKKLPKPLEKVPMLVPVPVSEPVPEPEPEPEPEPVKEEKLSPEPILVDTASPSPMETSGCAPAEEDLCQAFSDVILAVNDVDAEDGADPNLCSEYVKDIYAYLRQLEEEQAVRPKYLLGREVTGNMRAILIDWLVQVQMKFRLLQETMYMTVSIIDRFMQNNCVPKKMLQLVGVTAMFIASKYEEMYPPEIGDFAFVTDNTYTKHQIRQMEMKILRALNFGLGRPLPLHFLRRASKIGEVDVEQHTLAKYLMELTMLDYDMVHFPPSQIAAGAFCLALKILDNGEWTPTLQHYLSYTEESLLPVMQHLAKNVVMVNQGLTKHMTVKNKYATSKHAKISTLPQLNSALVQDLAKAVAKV
Experimental: (§3) To determine inhibition of Cdk4, Cdk2 and Cdk1 activity, kinase assays were conducted using FlashPlate™ assays (NEN™-Life Science Products). FlashPlate assays were performed using recombinant human cyclin B-CDK1, human cyclin E-CDK2 or human cyclin D1-CDK4 complexes. GST-cyclinE (GST-cycE), CDK2, GST-cyclinB (GST-cycB), CDK1, GST-CDK4 and cyclin D1 (cycD1) cDNA clones in baculovirus vectors were provided by Dr. W. Harper at the Baylor College of Medicine, Houston, Tex. Proteins were co-expressed in High Five™ insect cells and the complex was purified on glutathione Sepharose resin (Pharmacia, Piscataway, N.J.) as previously described (Harper, J. W. et al. Cell 1993, 75, 805–816). A 6×-Histidine tagged truncated form of retinoblastoma (Rb) protein (amino acid 386–928) was used as the substrate for the cycD1-CDK4, cycB-CDK1 and the cycE-CDK2 assays (the expression plasmid was provided by Dr. Veronica Sullivan, Department of Molecular Virology, Roche Research Centre, Welwyn Garden City, United Kingdom). The Rb protein is a natural substrate for phosphorylation by CDK4, CDK2 and CDK1 (see Herwig and Strauss Eur. J. Biochem. Vol. 246 (1997) pp. 581–601 and the references cited therein).
as §1, §2
(§4) [formula] where “test compound” refers to the average counts per minute of the test duplicates, “nonspecific” refers to the average counts per minute when no CyclinD/Cdk4, etc., was added, and “total” refers to the average counts per minute when no compound was added. The IC50 value is the concentration of test compound that reduces by 50% the protein-kinase induced incorporation of the radiolabel under the test conditions described.

human cyclin E-CDK2 = human cyclin E-CDK2 (Homo sapiens, UniProt P24941); experiment: FlashPlate kinase assay, cyclin E-CDK2; conditions: Rb protein substrate, 1 μM ATP, 33P-ATP, 30 minutes room temperature
Experimental: as §3, §1, §2, §4

Chain of human cyclin D1-CDK4 (P11802 whole entry): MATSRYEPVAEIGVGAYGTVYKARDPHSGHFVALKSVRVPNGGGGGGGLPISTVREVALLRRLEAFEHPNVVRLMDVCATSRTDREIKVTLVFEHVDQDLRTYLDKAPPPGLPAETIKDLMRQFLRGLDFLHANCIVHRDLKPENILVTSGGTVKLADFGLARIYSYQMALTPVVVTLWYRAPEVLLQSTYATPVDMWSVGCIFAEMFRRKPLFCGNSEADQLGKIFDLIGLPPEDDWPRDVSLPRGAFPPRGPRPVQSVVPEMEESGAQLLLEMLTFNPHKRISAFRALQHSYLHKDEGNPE
Chain of human cyclin D1-CDK4 (P24385 whole entry partner): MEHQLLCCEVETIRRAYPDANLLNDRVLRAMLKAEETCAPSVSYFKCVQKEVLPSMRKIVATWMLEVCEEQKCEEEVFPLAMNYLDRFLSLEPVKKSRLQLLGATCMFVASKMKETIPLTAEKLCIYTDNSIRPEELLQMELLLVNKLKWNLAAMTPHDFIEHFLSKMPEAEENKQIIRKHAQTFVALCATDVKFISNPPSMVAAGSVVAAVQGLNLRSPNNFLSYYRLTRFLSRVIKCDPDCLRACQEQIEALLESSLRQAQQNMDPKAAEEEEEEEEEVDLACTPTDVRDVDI

SMILES | IC50 (human cyclin D1-CDK4) [nM] | IC50 (human cyclin B-CDK1) [µM] | IC50 (human cyclin E-CDK2) [µM]
Nc1nc(Nc2ccc(N3CCC(N4CCCC4)CC3)cc2)sc1C(=O)c1ccc(O)cc1 [Example 28, {4-Amino-2-[4-(4-pyrrolidin-1-yl-piperidin-1-yl)-phenylamino]-thiazol-5-yl}-(4-hydroxy-phenyl)-methanone] | 53 | 1.17 | 4.18
Nc1nc(Nc2ccc(N3CCC(N4CCCCC4)CC3)cc2)sc1C(=O)c1ccc(O)cc1 [Example 29, [4-Amino-2-(4-[1,4′]bipiperidinyl-1′-yl-phenylamino)-thiazol-5-yl]-(4-hydroxy-phenyl)-methanone] | 55 | 1.23 | 3.99
COc1ccc(C(=O)c2sc(Nc3ccc(N4CCC(N(C)C)CC4)cc3)nc2N)cc1F [Example 42, {4-Amino-2-[4-(4-dimethylamino-piperidin-1-yl)-phenylamino]-thiazol-5-yl}-(3-fluoro-4-methoxy-phenyl)-methanone] | 86 | 5.79 | 5.83
CN(C)C1CCN(c2ccc(Nc3nc(N)c(C(=O)c4ccc(O)cc4)s3)cc2)CC1 [Example 46, {4-Amino-2-[4-(4-dimethylamino-piperidin-1-yl)-phenylamino]-thiazol-5-yl}-(4-hydroxy-phenyl)-methanone] | 55 | 3.81 | 5.67
COc1cccc(C(=O)c2sc(Nc3ccc(N4CCC(N(C)C)CC4)cc3)nc2N)c1[N+](=O)[O-] [Example 49, {4-Amino-2-[4-(4-dimethylamino-piperidin-1-yl)-phenylamino]-thiazol-5-yl}-(3-methoxy-2-nitro-phenyl)-methanone] | 8 | 0.005 | 0.136
Nc1nc(Nc2ccc(N3CCC(N4CCCCC4)CC3)cc2)sc1C(=O)c1cc(F)cc(F)c1 [Example 57, [4-Amino-2-(4-[1,4′]bipiperidinyl-1′-yl-phenylamino)-thiazol-5-yl]-(3,5-difluoro-phenyl)-methanone] | 86 | 3.56 | 8.03
Nc1nc(Nc2ccc(N3CCC(N4CCCCC4)CC3)cc2)sc1C(=O)c1ccc(F)c(F)c1 [Example 59, [4-Amino-2-(4-[1,4′]bipiperidinyl-1′-yl-phenylamino)-thiazol-5-yl]-(3,4-difluoro-phenyl)-methanone] | 61 | 4.63 | 3.09
Nc1nc(Nc2ccc(N3CCC(N4CCCCC4)CC3)cc2)sc1C(=O)c1ccc(Cl)c([N+](=O)[O-])c1 [Example 62, [4-Amino-2-(4-[1,4′]bipiperidinyl-1′-yl-phenylamino)-thiazol-5-yl]-(4-chloro-3-nitro-phenyl)-methanone] | 278 | 4.21 | 4.17
N#Cc1cccc(C(=O)c2sc(Nc3ccc(N4CCC(N5CCCCC5)CC4)cc3)nc2N)c1 [Example 64, 3-[4-Amino-2-(4-[1,4′]bipiperidinyl-1′-yl-phenlamino)-thiazole-5-carbonyl]-benzonitrile] | 15 | 1.28 | 2.7
Nc1nc(Nc2ccc(N3CCC(N4CCCCC4)CC3)cc2)sc1C(=O)c1cccc(O)c1 [Example 65, [4-Amino-2-(4-[1,4′]bipiperidinyl-1′-yl-phenylamino)-thiazol-5-yl]-(3-hydroxy-phenyl)-methanone] | 18 | 1.44 | 3.39
Nc1nc(Nc2ccc(N3CCC(N4CCCC4)CC3)cc2)sc1C(=O)c1ccc(F)c(F)c1 [Example 68, {4-Amino-2-[4-(4-pyrrolidin-1-yl-piperidin-1-yl)-phenylamino]-thiazol-5-yl}-(3,4-difluoro-phenyl)-methanone] | 89 | 3.85 | 5.95
Nc1nc(Nc2ccc(N3CCC(N4CCCC4)CC3)cc2)sc1C(=O)c1ccc(Cl)c(Cl)c1 [Example 69] | 102 | 6.23 | 5.62
Nc1nc(Nc2ccc(N3CCC(N4CCCC4)CC3)cc2)sc1C(=O)c1ccc(Cl)c([N+](=O)[O-])c1 [Example 71, {4-Amino-2-[4-(4-pyrrolidin-1-yl-piperidin-1-yl)-phenylamino]-thiazol-5-yl}-(4-chloro-3-nitro-phenyl)-methanone] | 162 | 4.06 | 4.15
Nc1nc(Nc2ccc(N3CCC(N4CCCC(O)C4)CC3)cc2)sc1C(=O)c1cc(F)cc(F)c1 (stereo not shown) [Example 73, {4-Amino-2-[4-(3-hydroxy-[1,4′]bipiperidinyl-1′-yl)-phenylamino]-thiazol-5-yl}-(3,5-difluoro-phenyl)-methanone] | 88 | 2.59 | 8.05
Nc1nc(Nc2ccc(N3CCC(N4CCCC(O)C4)CC3)cc2)sc1C(=O)c1ccc(F)c(F)c1 (stereo not shown) [Example 75, {4-Amino-2-[4-(3-hydroxy-[1,4′]bipiperidinyl-1′-yl)-phenylamino]-thiazol-5-yl}-(3,4-difluoro-phenyl)-methanone] | 58 | 4.05 | 8.68
Nc1nc(Nc2ccc(N3CCC(N4CCCC(O)C4)CC3)cc2)sc1C(=O)c1ccc(Cl)c(Cl)c1 (stereo not shown) [Example 76, {4-Amino-2-[4-(3-hydroxy-[1,4′]bipiperidinyl-1′-yl)-phenylamino]-thiazol-5-yl}-(3,4-dichloro-phenyl)-methanone] | 124 |  | 8.76
Nc1nc(Nc2ccc(N3CCC(N4CCCC(O)C4)CC3)cc2)sc1C(=O)c1ccc(Cl)c([N+](=O)[O-])c1 (stereo not shown) [Example 78, {4-Amino-2-[4-(3-hydroxy-[1,4′]bipiperidinyl-1′-yl)-phenylamino]-thiazol-5-yl}-(4-chloro-3-nitro-phenyl)-methanone] | 246 | 2.9 | 3.71
CN(C)C1CCN(c2ccc(Nc3nc(N)c(C(=O)c4cc(F)cc(F)c4)s3)cc2)CC1 [Example 82, {4-Amino-2-[4-(4-dimethylamino-piperidin-1-yl)-phenylamino]-thiazol-5-yl}-(3,5-difluoro-phenyl)-methanone] | 84 | 4.27 | 7.84
CN(C)C1CCN(c2ccc(Nc3nc(N)c(C(=O)c4ccc(F)c(F)c4)s3)cc2)CC1 [Example 84, {4-Amino-2-[4-(4-dimethylamino-piperidin-1-yl)-phenylamino]-thiazol-5-yl}-(3,4-difluoro-phenyl)-methanone] | 122 | 3.73 | 9.51
CN(C)C1CCN(c2ccc(Nc3nc(N)c(C(=O)c4ccc(Cl)c(Cl)c4)s3)cc2)CC1 [Example 85, {4-Amino-2-[4-(4-dimethylamino-piperidin-1-yl)-phenylamino]-thiazol-5-yl}-(3,4-dichloro-phenyl)-methanone] | 98 | 0.51 | 2.26
Cc1cccc(C(=O)c2sc(Nc3ccc(N4CCC(N5CCCC5)CC4)cc3)nc2N)c1 [Example 109, {4-Amino-2-[4-(4-pyrrolidin-1-yl-piperidin-1-yl)-phenylamino]-thiazol-5-yl}-tolyl-methanone] | 14 | 0.77 | 
